Measured values: publication PMC10771296, “Plectasin: from evolution to truncation, expression, and better druggability” (Frontiers in Microbiology, 2023)
Values after ≈ are worked out from the molar mass of the structure shown. Like-named read-outs stand apart in the source and are kept apart here. Marks after values point to notes of the source that are not given here.

Experiments:
E. coli O157 = conditions: ref Yang et al., 2019; cited from earlier work
Description: (§1) Table 3 The MIC values of Ple-AB. | column: MIC (μg/mL) / Plectasin

P. aeruginsoa CICC21630 = conditions: ref Yang et al., 2019; cited from earlier work
Description: as §1

S. aureus ATCC43300 [1] = conditions: ref Yang et al., 2019; cited from earlier work
Description: as §1

S. aureus CVCC546 = conditions: ref Yang et al., 2019; cited from earlier work
Description: as §1

S. aureus E48 = conditions: ref Yang et al., 2019; cited from earlier work
Description: as §1

mouse erythrocytes = conditions: 256 μg/mL; ref Zhang et al., 2011; Yang et al., 2019; cited from earlier work
Description: The length, positive charge number, and amphiphilicity of the derived peptide Ple-AB were altered, reducing the peptide chain length from 40 to 36 amino acids, reducing the molecular weight from 4407.99 to 4006.66 Da, increasing the charge number from +1 to +3, and increasing the hydrophobicity from −0.695 to −0.469 (Table 1).

S. aureus ATCC43300 [2] = conditions: ref Lei et al., 2018; cited from earlier work
Description: Clinical applications require drugs that exhibi ...

S. aureus ATCC43300 [3] = assay: MIC/MBC, micro broth dilution; format: cell-based, Staphylococcus aureus; conditions: Staphylococcus aureus, ATCC43300; micro broth dilution, 1 × 10^5 CFU/mL, repeated thrice; read-out: MIC
Procedure: The minimum inhibitory concentration (MIC) of the peptides was assayed using the micro broth dilution method, which is an important indicator of the antibacterial activity of the AMPs ([Liu et al., 2021]). […] The MIC was defined as the lowest concentration of ones at which no visible bacterial growth was observed. All the assays were repeated thrice.

S. aureus ATCC43300 [4] = assay: Time-kill curve (bacterial kinetics in vitro); format: cell-based, Staphylococcus aureus; conditions: 2× MIC, 1 × 10^5 CFU/mL, 37°C, 250 rpm, colony counting
Procedure: The bactericidal efficiency of Ple-AB was evaluated by plotting a time-kill curve ([Zheng et al., 2021]). Single colonies of the S. aureus ATCC43300 were picked for overnight activation, and 1% were transferred and incubated at 37°C until the logarithmic growth phase. […] Samples of 100 uL of bacteria were taken at 0, 0.5, 1, 2, 4, 6, 8, 10, 12, and 24 h, diluted, and coated to count the number of single colonies and plot the time-killing curve.

Structure (SMILES)	MIC (E. coli O157)	MIC (P. aeruginsoa CICC21630)	MIC (S. aureus ATCC43300 [1])	MIC (S. aureus CVCC546)	MIC (S. aureus E48)	Hemolytic activity (mouse erythrocytes) [%]	Time of co-incubation with simulated intestinal fluid after which activity is lost (S. aureus ATCC43300 [2]) [min]	MIC (S. aureus ATCC43300 [3]) [µg/mL]	Time to kill all the strains (S. aureus ATCC43300 [4]) [h]
CC[C@H](C)[C@@H]1NC(=O)[C@H](CO)NC(=O)[C@H](CCCCN)NC(=O)[C@@H]2CSSC[C@@H](C(=O)N[C@@H](Cc3ccc(O)cc3)C(=O)O)NC(=O)[C@H](CCCCN)NC(=O)[C@@H]3CSSC[C@H](NC(=O)[C@H](CCC(N)=O)NC(=O)[C@H](CCSC)NC(=O)[C@H](CC(=O)O)NC(=O)[C@H](CC(=O)O)NC(=O)[C@H](CCC(=O)O)NC(=O)[C@H](CC(=O)O)NC(=O)[C@H](Cc4c[nH]c5ccccc45)NC(=O)[C@@H]4CCCN4C(=O)CNC(=O)[C@H](CC(N)=O)NC(=O)[C@@H](NC(=O)CNC(=O)[C@H](Cc4ccccc4)NC(=O)CN)CSSC[C@H](NC(=O)[C@H](Cc4ccc(O)cc4)NC(=O)CNC(=O)CNC(=O)[C@H](CCCCN)NC(=O)[C@H](Cc4ccc(O)cc4)NC(=O)CNC(=O)[C@H](CCCCN)NC1=O)C(=O)N[C@@H](C)C(=O)N[C@@H](CCCCN)C(=O)NCC(=O)NCC(=O)N[C@@H](Cc1ccccc1)C(=O)N[C@@H](C(C)C)C(=O)N3)C(=O)N[C@@H](Cc1c[nH]cn1)C(=O)N[C@@H](CC(N)=O)C(=O)N[C@@H](Cc1c[nH]cn1)C(=O)N2 [Plectasin]	>128 ^a μg/mL	>128 ^a μg/mL	4^a μg/mL	16^a μg/mL	4^a μg/mL	68	15 to 30	–	–
CN[C@H](CC(C)C)C(=O)N[C@H]1C(=O)N[C@@H](CC(N)=O)C(=O)N[C@H]2C(=O)N[C@H]3C(=O)N[C@H](C(=O)N[C@H](C(=O)O)c4cc(O)cc(O)c4-c4cc3ccc4O)[C@H](O)c3ccc(c(Cl)c3)Oc3cc2cc(c3O[C@@H]2O[C@H](CO)[C@@H](O)[C@H](O)[C@H]2O[C@H]2C[C@](C)(N)[C@H](O)[C@H](C)O2)Oc2ccc(cc2Cl)[C@H]1O [vancomycin, reference compound]	–	–	–	–	–	–	–	1 (≈ 0.69 µM)	6
